Earlier results in patent US20170239173A1, “TRANSDERMAL ABSORPTION ENHANCER AND TRANSDERMAL ABSORPTION ENHANCEMENT AID” (ASAHI KASEI KABUSHIKI KAISHA, priority 2014, published 2017).
Several values for one entry are separate records, joined by “and”; a condition that tells them apart may be missing. Equal entries are not always repeated.

Conditions: partition coefficient between water and 1-octanol; cited from earlier work

SMILES	Log P
N[C@H]1C(O)O[C@H](CO)[C@@H](O)[C@@H]1O (stereo partly drawn) [D-glucosamine]	−2.8
CC(C)(S)[C@@H](N)C(=O)O [D-penicillamine]	−1.8
CCCCCCCCCCCCCC(=O)OC(C)C [IPM, isopropyl myristate]	7.2
CC[C@H](C)[C@H](N)C(=O)O [L-Isoleucine]	(LogP = −3.69)
O=C1O[C@H]([C@@H](O)CO)C(O)=C1O [L-ascorbic acid]	−1.6
C[N+](C)(C)C[C@H](O)CC(=O)[O-] [L-carnitine]	−0.2
N[C@@H](CS)C(=O)O [L-cysteine]	−2.5
CC(=O)N[C@H]1C(O)O[C@H](CO)[C@@H](O)[C@@H]1O (stereo partly drawn) [N-acetyl-D-glucosamine]	−1.7
CCCCCCCC(=O)OCC(COC(=O)CCCCCCC)OC(=O)CCCCCCC [Tricaprylin, glycerin tricaprylate]	8.9
CC(=O)Nc1ccc(CC(=O)O)cc1 [actarit]	0.4
CC(=O)SC[C@@H](C)C(=O)N1CCC[C@H]1C(=O)N[C@@H](Cc1ccccc1)C(=O)O [alacepril]	2.1
C[C@H](N)C(=O)O [alanine]	−3
NC(=O)NC1NC(=O)NC1=O (centres unmarked) [allantoin]	−2.2
CCOC(=O)C1=C(COCCN)NC(C)=C(C(=O)OC)C1c1ccccc1Cl (centres unmarked) [amlodipine]	3
Nc1cc(-c2ccncc2)c[nH]c1=O [amrinone]	−0.2
OC[C@H]1O[C@@H](Oc2ccc(O)cc2)[C@H](O)[C@@H](O)[C@@H]1O [arbutin]	−0.6
CC(C)(C)NCC(O)CSc1nc(-c2ccc(C(N)=O)s2)cs1 (centres unmarked) [arotinolol]	2.3
O=C(O)CCCCCCCC(=O)O [azelaic acid]	1.6
COc1ccc(CCNCC(O)COc2cccc(C)c2)cc1OC (centres unmarked) [bevantolol]	3
O=C(O)CCCC[C@@H]1SC[C@@H]2NC(=O)N[C@@H]21 [biotin]	0.3
CCCC(=O)N1CCCN(c2nc(N)c3cc(OC)c(OC)cc3n2)CC1 [bunazosin]	2.2

SMILES	Log P
C[C@H](CS)C(=O)N1CCC[C@H]1C(=O)O [captopril]	0.3
C[C@@](Cc1ccc(O)c(O)c1)(NN)C(=O)O [carbidopa]	−2.2
NS(=O)(=O)c1cc(C2(O)NC(=O)c3ccccc32)ccc1Cl (centres unmarked) [chlorthalidone]	0.9
CCOC(=O)[C@H](CCc1ccccc1)N[C@H]1CCCN2CCC[C@@H](C(=O)O)N2C1=O [cilazapril]	0.6
Clc1cccc(Cl)c1N=C1NCCN1 [clonidine]	1.6
CCOC(=O)[C@H](CCc1ccccc1)N[C@@H](C)C(=O)N(CC(=O)O)C1Cc2ccccc2C1 [delapril]	1.7
COc1ccc(CCNC[C@H](O)c2ccc(O)cc2)cc1OC [denopamine]	1.8
CCOC(=O)Oc1ccc(CCNC(=O)[C@H](CCSC)NC(C)=O)cc1OC(=O)OCC [docarpamine]	2.9
NCCc1ccc(O)c(O)c1 [dopamine]	−1
CCOC(=O)[C@H](CCc1ccccc1)N[C@@H](C)C(=O)N1CCC[C@H]1C(=O)O [enalapril]	−0.1
COc1cc(C)nc(-n2nc(C)cc2OC)n1 [epirizole]	1.3
COC(=O)[C@@H]1CC2=CC(=O)CC[C@]2(C)[C@@]23O[C@@H]2C[C@@]2(C)[C@@H](CC[C@@]24CCC(=O)O4)[C@H]13 [eplerenone]	1.4
CC(O)(P(=O)(O)O)P(=O)(O)O [etidronic acid]	−3.7
NC(N)=Nc1nc(CSCCC(N)=NS(N)(=O)=O)cs1 [famotidine]	−0.6
N[C@@H](CCC(=O)N[C@@H](CS)C(=O)NCC(=O)O)C(=O)O [glutathione]	−4.5
COc1ccccc1O [guaiacol]	1.3
N=C(N)NC(=O)Cc1c(Cl)cccc1Cl [guanfacine]	2
N[C@@H](Cc1c[nH]cn1)C(=O)O [histidine]	−3.2
NNc1nncc2ccccc12 [hydralazine]	0.7
Oc1ccc(O)cc1 [hydroquinone]	−0.6
CCOC(=O)[C@H](CCc1ccccc1)N[C@@H](C)C(=O)N1C(=O)N(C)C[C@H]1C(=O)O [imidapril]	−0.7

SMILES	Log P
CC(C)NCC(O)c1ccc(O)c(O)c1 (centres unmarked) [isoprenaline]	−0.6
Cc1c(C(C)C)c(=O)n(-c2ccccc2)n1C [isopropylantipyrine]	1.7
O[C@@H]1CO[C@H]2[C@@H]1OC[C@@H]2O [isosorbide]	−1.4
O=c1cc(CO)occ1O [kojic acid]	−0.9
O=C(C[S+]([O-])Cc1ccco1)NC/C=C\COc1cc(CN2CCCCC2)ccn1 (centres unmarked) [lafutidine]	1.4
Cc1c(OCC(F)(F)F)ccnc1C[S+]([O-])c1nc2ccccc2[nH]1 (centres unmarked) [lansoprazole]	2.8
Cc1oncc1C(=O)Nc1ccc(C(F)(F)F)cc1 [leflunomide]	2.6
NCCCC[C@H](N[C@@H](CCc1ccccc1)C(=O)O)C(=O)N1CCC[C@H]1C(=O)O [lisinopril]	−2.9 and −3.0
Nc1cc(N2CCCCC2)nc(N)[n+]1[O-] [loniten]	1.2
CN(CC1(C)CCCO1)S(=O)(=O)c1ccc(Cl)c(S(N)(=O)=O)c1 (centres unmarked) [mefruside]	0.9
C[C@H]1C[C@@H]2[C@H]([C@@H](O)C[C@@]3(C)[C@H]2CC[C@]3(O)C(=O)CO)[C@@]2(C)C=CC(=O)C=C12 [methylprednisolone]	1.9
Cc1cc2c(cc1S(N)(=O)=O)S(=O)(=O)CCC2 [meticrane]	0.5
Cc1[nH]c(=O)c(C#N)cc1-c1ccncc1 [milrinone]	0
Nc1cc(N2CCCCC2)nc(N)[n+]1[O-] [minoxidil]	1.2
O=C(O)c1cccnc1 [nicotinic acid]	0.4
Cn1c(NCCN(CCO)CCCc2ccc([N+](=O)[O-])cc2)cc(=O)n(C)c1=O [nifekalant]	1.1
CNC(=C[N+](=O)[O-])NCCSCc1csc(CN(C)C)n1 [nizatidine]	1.6
CC(C)(CO)[C@@H](O)C(=O)NCCC(=O)O [pantothenic acid]	−1.1
CCC[C@H](N[C@@H](C)C(=O)N1[C@H](C(=O)O)C[C@@H]2CCCC[C@@H]21)C(=O)OCC [perindopril]	0.9
Cc1ccc(N(CC2=NCCN2)c2cccc(O)c2)cc1 [phentolamine]	2.6
